Earlier results, collected in patent publication US20250049951A1, “NUCLEIC ACID COMPOSITIONS AND USES THEREOF” (SURGE Therapeutics, Inc., priority 2021, published 2025).
“And” between values parts separate entries of the source, which are not always exact repeats. Equal entries are not always repeated.

Columns and labels:
TLR8 = target: T1, TLR8 (Homo sapiens, UniProt Q9NR97); conditions: TLR8-transfected HEK293 cells
T1 construct: expressed in transfected cells; host or cells: HEK293
T1 sequence (Q9NR97 27-1041): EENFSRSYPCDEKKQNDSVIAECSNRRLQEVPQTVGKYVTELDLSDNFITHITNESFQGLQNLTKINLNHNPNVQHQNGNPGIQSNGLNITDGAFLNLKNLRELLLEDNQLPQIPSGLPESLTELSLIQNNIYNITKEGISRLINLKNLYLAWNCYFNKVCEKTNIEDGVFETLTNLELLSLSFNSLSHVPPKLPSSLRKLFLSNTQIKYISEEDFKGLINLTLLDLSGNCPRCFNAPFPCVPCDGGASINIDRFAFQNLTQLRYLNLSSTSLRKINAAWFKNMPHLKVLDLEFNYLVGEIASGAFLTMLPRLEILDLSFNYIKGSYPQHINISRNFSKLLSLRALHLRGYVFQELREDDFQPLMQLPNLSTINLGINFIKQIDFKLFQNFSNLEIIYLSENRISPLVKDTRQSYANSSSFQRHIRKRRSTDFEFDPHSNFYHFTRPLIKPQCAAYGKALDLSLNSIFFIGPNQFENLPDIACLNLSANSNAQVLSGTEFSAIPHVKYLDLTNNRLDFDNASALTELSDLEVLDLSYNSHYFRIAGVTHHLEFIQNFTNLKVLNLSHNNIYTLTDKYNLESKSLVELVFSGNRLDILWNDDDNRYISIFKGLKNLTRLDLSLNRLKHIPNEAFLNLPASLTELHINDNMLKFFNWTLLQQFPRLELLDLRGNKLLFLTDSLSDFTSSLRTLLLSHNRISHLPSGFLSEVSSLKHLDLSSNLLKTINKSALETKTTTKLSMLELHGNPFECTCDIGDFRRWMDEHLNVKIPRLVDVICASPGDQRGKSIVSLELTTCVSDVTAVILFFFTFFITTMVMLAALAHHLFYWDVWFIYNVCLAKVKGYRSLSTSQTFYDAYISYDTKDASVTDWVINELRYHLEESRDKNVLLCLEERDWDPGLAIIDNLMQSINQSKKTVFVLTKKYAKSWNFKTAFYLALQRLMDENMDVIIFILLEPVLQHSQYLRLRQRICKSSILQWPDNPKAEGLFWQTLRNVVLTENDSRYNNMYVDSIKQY

TLR7 = target: T2, TLR7 (Homo sapiens, UniProt Q9NYK1)
T2 construct: expressed in transfected cells; host or cells: HEK293
T2 sequence (Q9NYK1 27-1049): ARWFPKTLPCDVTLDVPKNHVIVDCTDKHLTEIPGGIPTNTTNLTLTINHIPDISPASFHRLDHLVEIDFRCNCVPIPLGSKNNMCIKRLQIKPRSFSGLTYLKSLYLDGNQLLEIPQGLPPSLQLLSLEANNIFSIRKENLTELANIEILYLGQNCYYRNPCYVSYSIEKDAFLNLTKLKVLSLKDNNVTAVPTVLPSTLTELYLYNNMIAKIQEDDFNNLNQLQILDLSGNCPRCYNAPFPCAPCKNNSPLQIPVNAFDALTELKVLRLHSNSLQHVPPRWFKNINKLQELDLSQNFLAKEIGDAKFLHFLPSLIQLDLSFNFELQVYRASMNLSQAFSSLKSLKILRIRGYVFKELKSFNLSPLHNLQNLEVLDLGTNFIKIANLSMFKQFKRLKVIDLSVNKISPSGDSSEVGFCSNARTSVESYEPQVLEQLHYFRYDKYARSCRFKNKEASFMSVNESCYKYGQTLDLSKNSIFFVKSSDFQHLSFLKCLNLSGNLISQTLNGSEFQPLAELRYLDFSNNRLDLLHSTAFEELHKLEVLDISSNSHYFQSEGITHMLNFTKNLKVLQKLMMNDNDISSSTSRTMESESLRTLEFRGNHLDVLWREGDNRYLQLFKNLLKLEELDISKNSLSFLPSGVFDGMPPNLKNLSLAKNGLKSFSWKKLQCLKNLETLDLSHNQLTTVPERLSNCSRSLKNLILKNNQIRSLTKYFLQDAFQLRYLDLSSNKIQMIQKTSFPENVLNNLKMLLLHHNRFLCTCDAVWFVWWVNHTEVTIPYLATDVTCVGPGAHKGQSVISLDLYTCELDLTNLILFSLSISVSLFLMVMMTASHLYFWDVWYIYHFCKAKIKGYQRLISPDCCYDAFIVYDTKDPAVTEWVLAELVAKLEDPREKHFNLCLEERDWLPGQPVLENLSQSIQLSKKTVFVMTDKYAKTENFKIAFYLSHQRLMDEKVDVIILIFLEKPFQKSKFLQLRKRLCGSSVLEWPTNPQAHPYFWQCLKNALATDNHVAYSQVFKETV

Row | concentration inducing NF-κB activation (TLR8) | concentration inducing NF-κB activation (TLR7; TLR7-transfected HEK293 cells) | water solubility | potency in inducing NF-κB activation relative to CL075 (TLR8; more potent than CL075) | potency in inducing NF-κB activation relative to R848 (TLR8; more potent than R848) | amount required to activate NF-κB in TLR7- relative to TLR8-transfected HEK293 cells (TLR7; times more than the 0.4 μM needed in TLR8 cells) | SMILES
1 | 4 μM and 1 μg/ml | 0.4 μM and 0.1 μg/ml | ≥ 20 mg/mL |  |  |  | CCOCC1Nc2c(N)nc3ccccc3c2N1 (stereo not shown) [CL097]
2 |  |  |  | ~25 × | ~50 × |  | CCOC(=O)C1=Cc2ccc(-c3cccc(C#N)c3)cc2N=C(N)C1 [TL8-506]
3 | 0.4 μM and 0.1 μg/ml |  |  |  |  | ~10 times | CCCc1nc2c(N)nc3ccccc3c2s1 [CL075]
